PubChem BioAssay AID1918994 (Molecular Pharmacology Branch, DTP, NCI, 2023)
pIC50: −log10 of the molar value.

System: 292921-168-R-J2-PDC complex spheroid growth
Test: Anticancer human tumor 292921-168-R-J2-PDC patient-derived pancreatic carcinoma cell line growth inhibition [AhR]
Settings: for pIC50: curve of first compound; for viability, T/C: stronger effect = lower value; active means viability on the fitted dose curve at most 10% of control; inactive means the rest
In short: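 Agents were dosed in half-log steps down from roughly clinical Cmax, or from 10 microM where Cmax was unknown, alone and with AhR antagonists. Read-out: percent test/control growth of tumor spheroids containing HUVEC and MSC stromal cells.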

[1] = second compound 0.1 µM, first compound 0.0316 µM
[2] = second compound 0.1 µM, first compound 0.1 µM
[3] = second compound 0.1 µM, first compound 0.316 µM
[4] = second compound 0.1 µM, first compound 1 µM
[5] = second compound 0.1 µM, first compound 3.16 µM
[6] = second compound 0.1 µM, first compound 10 µM
[7] = second compound 0.316 µM, first compound 0.0316 µM
[8] = second compound 0.316 µM, first compound 0.1 µM
[9] = second compound 0.316 µM, first compound 0.316 µM
[10] = second compound 0.316 µM, first compound 1 µM
[11] = second compound 0.316 µM, first compound 3.16 µM
[12] = second compound 0.316 µM, first compound 10 µM
[13] = second compound 1 µM, first compound 0.0316 µM
[14] = second compound 1 µM, first compound 0.1 µM
[15] = second compound 1 µM, first compound 0.316 µM
[16] = second compound 1 µM, first compound 1 µM
[17] = second compound 1 µM, first compound 3.16 µM
[18] = second compound 1 µM, first compound 10 µM
[19] = second compound 3.16 µM, first compound 0.0316 µM
[20] = second compound 3.16 µM, first compound 0.1 µM
[21] = second compound 3.16 µM, first compound 0.316 µM
[22] = second compound 3.16 µM, first compound 1 µM
[23] = second compound 3.16 µM, first compound 3.16 µM
[24] = second compound 3.16 µM, first compound 10 µM
[25] = second compound 10 µM, first compound 0.0316 µM
[26] = second compound 10 µM, first compound 0.1 µM
[27] = second compound 10 µM, first compound 0.316 µM
[28] = second compound 10 µM, first compound 1 µM
[29] = second compound 10 µM, first compound 3.16 µM
[30] = second compound 10 µM, first compound 10 µM
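Further: spheroids exposed to compounds for seven days after three days of growth.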

CC1(C)CCC(CN2CCN(c3ccc(C(=O)NS(=O)(=O)c4ccc(NCC5CCOCC5)c([N+](=O)[O-])c4)c(Oc4cnc5[nH]ccc5c4)c3)CC2)=C(c2ccc(Cl)cc2)C1 + CC(CO)NC(=O)c1cc(-c2ccc(Cl)cc2)nn(-c2cnn(C)c2)c1=O
5.17: pIC50 (second compound 1 µM)
5.21: pIC50 (second compound 0.1 µM)
5.20: pIC50 (second compound 0.316 µM)
5.37: pIC50 (second compound 10 µM)
inactive: viability, T/C [1] 103% | viability, T/C [2] 101% | viability, T/C [3] 108% | viability, T/C [4] 103% | viability, T/C [5] 91.1% | viability, T/C [6] 20.7% | viability, T/C [7] 105% | viability, T/C [8] 98.7% | viability, T/C [9] 106% | viability, T/C [10] 95.6% | viability, T/C [11] 97.5% | viability, T/C [12] 18.8% | viability, T/C [13] 96.7% | viability, T/C [14] 94.9% | viability, T/C [15] 102% | viability, T/C [16] 98.2% | viability, T/C [17] 101% | viability, T/C [18] 25.6% | viability, T/C [19] 92.9% | viability, T/C [20] 87.4% | viability, T/C [21] 93.3% | viability, T/C [22] 96.7% | viability, T/C [23] 83.8% | viability, T/C [24] 18.5% | viability, T/C [25] 67.8% | viability, T/C [26] 70.7% | viability, T/C [27] 71.6% | viability, T/C [28] 72.5% | viability, T/C [29] 62.2% | viability, T/C [30] 16%
5.24: pIC50 (second compound 3.16 µM)

CCN(c1cc(-c2ccc(CN3CCOCC3)cc2)cc(C(=O)NCc2c(C)cc(C)[nH]c2=O)c1C)C1CCOCC1 + CC(CO)NC(=O)c1cc(-c2ccc(Cl)cc2)nn(-c2cnn(C)c2)c1=O
< 5.52: pIC50 (second compound 0.1 µM) | pIC50 (second compound 0.316 µM) | pIC50 (second compound 1 µM) | pIC50 (second compound 3.16 µM) | pIC50 (second compound 10 µM)
inactive: viability, T/C (second compound 0.1 µM, first compound 0.00949 µM) 103% | viability, T/C (second compound 0.1 µM, first compound 0.03 µM) 100% | viability, T/C (second compound 0.1 µM, first compound 0.0949 µM) 102% | viability, T/C (second compound 0.1 µM, first compound 0.3 µM) 93.1% | viability, T/C (second compound 0.1 µM, first compound 0.949 µM) 96.9% | viability, T/C (second compound 0.1 µM, first compound 3 µM) 93.9% | viability, T/C (second compound 0.316 µM, first compound 0.00949 µM) 107% | viability, T/C (second compound 0.316 µM, first compound 0.03 µM) 102% | viability, T/C (second compound 0.316 µM, first compound 0.0949 µM) 100% | viability, T/C (second compound 0.316 µM, first compound 0.3 µM) 103% | viability, T/C (second compound 0.316 µM, first compound 0.949 µM) 94.8% | viability, T/C (second compound 0.316 µM, first compound 3 µM) 87% | viability, T/C (second compound 1 µM, first compound 0.00949 µM) 102% | viability, T/C (second compound 1 µM, first compound 0.03 µM) 99% | viability, T/C (second compound 1 µM, first compound 0.0949 µM) 110% | viability, T/C (second compound 1 µM, first compound 0.3 µM) 97% | viability, T/C (second compound 1 µM, first compound 0.949 µM) 95.5% | viability, T/C (second compound 1 µM, first compound 3 µM) 86.5% | viability, T/C (second compound 3.16 µM, first compound 0.00949 µM) 91.9% | viability, T/C (second compound 3.16 µM, first compound 0.03 µM) 89.4% | viability, T/C (second compound 3.16 µM, first compound 0.0949 µM) 104% | viability, T/C (second compound 3.16 µM, first compound 0.3 µM) 85% | viability, T/C (second compound 3.16 µM, first compound 0.949 µM) 81% | viability, T/C (second compound 3.16 µM, first compound 3 µM) 83% | viability, T/C (second compound 10 µM, first compound 0.00949 µM) 69.1% | viability, T/C (second compound 10 µM, first compound 0.03 µM) 71.1% | viability, T/C (second compound 10 µM, first compound 0.0949 µM) 76.4% | viability, T/C (second compound 10 µM, first compound 0.3 µM) 76.2% | viability, T/C (second compound 10 µM, first compound 0.949 µM) 69.9% | viability, T/C (second compound 10 µM, first compound 3 µM) 72.9%

Cn1ncnc1C1c2n[nH]c(=O)c3cc(F)cc(c23)NC1c1ccc(F)cc1 (stereo not given) + CC(CO)NC(=O)c1cc(-c2ccc(Cl)cc2)nn(-c2cnn(C)c2)c1=O
inactive: viability, T/C (second compound 0.1 µM, first compound 0.000316 µM) 103% | viability, T/C (second compound 0.1 µM, first compound 0.001 µM) 109% | viability, T/C (second compound 0.1 µM, first compound 0.00316 µM) 100% | viability, T/C (second compound 0.1 µM, first compound 0.01 µM) 99.8% | viability, T/C [1] 94.3% | viability, T/C [2] 87.6% | viability, T/C (second compound 0.316 µM, first compound 0.000316 µM) 109% | viability, T/C (second compound 0.316 µM, first compound 0.001 µM) 97.5% | viability, T/C (second compound 0.316 µM, first compound 0.00316 µM) 104% | viability, T/C (second compound 0.316 µM, first compound 0.01 µM) 96% | viability, T/C [7] 96.5% | viability, T/C [8] 79.9% | viability, T/C (second compound 1 µM, first compound 0.000316 µM) 108% | viability, T/C (second compound 1 µM, first compound 0.001 µM) 106% | viability, T/C (second compound 1 µM, first compound 0.00316 µM) 99.6% | viability, T/C (second compound 1 µM, first compound 0.01 µM) 89.9% | viability, T/C [13] 86.3% | viability, T/C [14] 94.3% | viability, T/C (second compound 3.16 µM, first compound 0.000316 µM) 92.2% | viability, T/C (second compound 3.16 µM, first compound 0.001 µM) 99.2% | viability, T/C (second compound 3.16 µM, first compound 0.00316 µM) 92.6% | viability, T/C (second compound 3.16 µM, first compound 0.01 µM) 92.9% | viability, T/C [19] 77.1% | viability, T/C [20] 77.4% | viability, T/C (second compound 10 µM, first compound 0.000316 µM) 68.5% | viability, T/C (second compound 10 µM, first compound 0.001 µM) 73.3% | viability, T/C (second compound 10 µM, first compound 0.00316 µM) 75.8% | viability, T/C (second compound 10 µM, first compound 0.01 µM) 73% | viability, T/C [25] 67% | viability, T/C [26] 64.6%
< 7.00: pIC50 (second compound 0.1 µM) | pIC50 (second compound 0.316 µM) | pIC50 (second compound 1 µM) | pIC50 (second compound 3.16 µM) | pIC50 (second compound 10 µM)

NS(=O)(=O)OCC1CC(n2ccc3c(NC4CCc5ccccc54)ncnc32)CC1O (stereo not given) + CC(CO)NC(=O)c1cc(-c2ccc(Cl)cc2)nn(-c2cnn(C)c2)c1=O
6.68: pIC50 (second compound 3.16 µM)
6.67: pIC50 (second compound 0.1 µM)
6.66: pIC50 (second compound 0.316 µM)
6.65: pIC50 (second compound 1 µM)
active: viability, T/C [4] 5.49% | viability, T/C [5] 4.31% | viability, T/C [6] 5.11% | viability, T/C [10] 6.03% | viability, T/C [11] 3.81% | viability, T/C [12] 4.31% | viability, T/C [16] 5.81% | viability, T/C [17] 4.08% | viability, T/C [18] 4.94% | viability, T/C [22] 5.74% | viability, T/C [23] 4% | viability, T/C [24] 5.65% | viability, T/C [28] 6.76% | viability, T/C [29] 3.96% | viability, T/C [30] 5.6%
6.77: pIC50 (second compound 10 µM)
inactive: viability, T/C [1] 117% | viability, T/C [2] 98.1% | viability, T/C [3] 24.8% | viability, T/C [7] 125% | viability, T/C [8] 98% | viability, T/C [9] 28.5% | viability, T/C [13] 116% | viability, T/C [14] 101% | viability, T/C [15] 27.8% | viability, T/C [19] 105% | viability, T/C [20] 93.5% | viability, T/C [21] 25.2% | viability, T/C [25] 89.6% | viability, T/C [26] 73.1% | viability, T/C [27] 22.2%
